{"source": "patent US10202371B2", "about": "“Oxazolidin-2-one-pyrimidine derivatives and the use thereof as phosphatidylinositol-3-kinase inhibitors” (Novartis AG, priority 2012, dated 2019)", "target": "human PI3Kbeta p110 catalytic subunit (Rat-1 cells) (Homo sapiens (Human), UniProt P42338)", "sequence (P42338 whole entry)": "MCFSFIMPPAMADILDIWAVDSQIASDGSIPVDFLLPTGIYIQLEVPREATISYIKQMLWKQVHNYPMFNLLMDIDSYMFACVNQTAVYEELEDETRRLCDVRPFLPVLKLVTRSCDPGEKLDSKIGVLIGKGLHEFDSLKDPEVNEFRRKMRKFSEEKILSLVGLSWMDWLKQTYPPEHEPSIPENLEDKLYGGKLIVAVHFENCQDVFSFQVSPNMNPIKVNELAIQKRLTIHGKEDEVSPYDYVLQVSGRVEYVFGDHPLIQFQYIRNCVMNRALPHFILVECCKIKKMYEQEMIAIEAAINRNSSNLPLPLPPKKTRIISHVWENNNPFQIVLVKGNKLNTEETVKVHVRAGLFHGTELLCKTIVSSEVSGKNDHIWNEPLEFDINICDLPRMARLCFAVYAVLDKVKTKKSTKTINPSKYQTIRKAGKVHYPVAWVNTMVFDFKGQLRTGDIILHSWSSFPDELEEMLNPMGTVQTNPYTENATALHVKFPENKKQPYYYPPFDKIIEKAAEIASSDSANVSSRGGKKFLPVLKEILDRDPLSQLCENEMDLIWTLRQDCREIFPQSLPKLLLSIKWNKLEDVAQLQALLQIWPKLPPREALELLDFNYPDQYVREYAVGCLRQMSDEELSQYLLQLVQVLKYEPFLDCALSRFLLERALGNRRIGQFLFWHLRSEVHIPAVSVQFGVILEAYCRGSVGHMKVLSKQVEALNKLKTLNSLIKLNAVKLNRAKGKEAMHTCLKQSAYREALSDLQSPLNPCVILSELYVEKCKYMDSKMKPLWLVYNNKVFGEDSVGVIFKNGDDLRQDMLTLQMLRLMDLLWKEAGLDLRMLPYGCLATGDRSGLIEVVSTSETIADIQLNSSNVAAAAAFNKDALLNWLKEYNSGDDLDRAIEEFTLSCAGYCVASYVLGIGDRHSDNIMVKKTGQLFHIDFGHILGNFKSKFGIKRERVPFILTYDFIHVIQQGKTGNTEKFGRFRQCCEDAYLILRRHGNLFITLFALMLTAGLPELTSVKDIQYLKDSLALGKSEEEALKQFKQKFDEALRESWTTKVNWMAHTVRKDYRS", "sequence (Q63787 whole entry partner)": "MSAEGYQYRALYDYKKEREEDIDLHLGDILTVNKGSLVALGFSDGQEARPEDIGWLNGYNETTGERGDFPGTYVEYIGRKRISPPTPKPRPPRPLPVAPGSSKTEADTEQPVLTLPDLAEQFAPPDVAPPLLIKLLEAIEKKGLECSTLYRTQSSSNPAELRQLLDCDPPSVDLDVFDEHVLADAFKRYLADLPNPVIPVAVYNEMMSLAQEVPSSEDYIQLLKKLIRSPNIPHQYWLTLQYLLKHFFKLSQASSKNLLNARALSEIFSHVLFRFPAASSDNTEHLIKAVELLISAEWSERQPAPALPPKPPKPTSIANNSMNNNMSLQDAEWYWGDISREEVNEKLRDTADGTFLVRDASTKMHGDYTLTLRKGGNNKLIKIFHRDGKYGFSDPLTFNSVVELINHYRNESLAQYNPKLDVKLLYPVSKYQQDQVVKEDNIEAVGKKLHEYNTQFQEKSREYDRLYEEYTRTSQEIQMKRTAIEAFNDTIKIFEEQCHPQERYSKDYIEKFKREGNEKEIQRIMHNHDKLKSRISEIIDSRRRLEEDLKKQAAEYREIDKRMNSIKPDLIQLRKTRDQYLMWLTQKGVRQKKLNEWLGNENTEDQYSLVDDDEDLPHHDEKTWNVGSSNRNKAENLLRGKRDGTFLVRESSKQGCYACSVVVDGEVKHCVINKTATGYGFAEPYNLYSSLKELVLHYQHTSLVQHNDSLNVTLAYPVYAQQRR", "assay": "Cellular assay PI3Kbeta, p-Akt(S473) SureFire in Rat-1_PI3Kbeta cells", "format": "cell-based", "details": "p-AKT(Ser473), 1 h treatment; read-out: Rat1-PI3Kb/IC50", "from_the_text": "AlphaScreen (Amplified Luminescent Proximity Homogeneous Assay, ALPHA, Perkin Elmer) is a non-radioactive bead-based proximity assay technology to study biomolecular interactions in a homogenous microtiter plate format. The brand name SureFire denotes AlphaScreen assays that are adapted to quantify the phosphorylation of endogenous cellular proteins in cell lysates, by using matched antibody pairs, which consist of an anti-phospho-kinase and an anti-kinase antibody. The assay allows characterization of kinase signaling in cells as well as measurement of kinase inhibitor effects. The AlphaScreen technology provides several advantages over standard assay techniques such as ELISA, as it avoids time-consuming washing procedures and reduces plate handling. Furthermore, it is miniaturizable at least to a 384-well format and provides sensitivity down to the femtomolar range, dependent on the affinity of the antibodies included in the individual AlphaScreen SureFire assay kit. High sensitivity is reached by an intrinsic amplification mechanism, which involves production of singlet oxygen molecules. SureFire assay kits are commercially available for specific targets and include pairs of validated antibodies (PerkinElmer). This report describes common procedures applied for AlphaScreen SureFire assays and respective semi-automated steps for routine kinase inhibitor profiling in cell-based assays.\nThe Rat-1 cell lines stably overexpressing activated PI3K class I isoforms Rat-1 pBABEpuro Myr-HA-hp110 delta (Rat-1_PI3Kdelta) and Rat-1 pBABEpuro Myr-HA-hp110alpha (Rat-1_PI3Kalpha) and Rat-1 pBABEpuro Myr-HA-hp110 beta (Rat-1_PI3beta) were prepared as described (Maira S M, Stauffer F, Brueggen J, Furet P, Schnell C, Fritsch C, Brachmann S, Chène P, de Pover A, Schoemaker K, Fabbro D, Gabriel D, Simonen M, Murphy L, Finan P, Sellers W, Garcia-Echeverria C (2008), Mol Cancer Ther. 7:1851-63 and Maira S M, Pecchi S, Brueggen J, Huh K, Schnell C, Fritsch C, Nagel T, Wiesmann M, Brachmann S, Dorsch M, Chène P, Schoemaker K, De Pover A, Menezes D, Fabbro D, Sellers W, Garcia-Echeverria C, Voliva CF (2011), Mol. Cancer Ther., accepted). All cell lines were cultivated in complete growth medium (DMEM high glucose, 10% (v/v) fetal bovine serum, 1% (v/v) MEM NEAA, 10 mM HEPES, 2 mM L-glutamine, puromycin (10 μg/mL for Rat-1_PI3Kdelta and Rat-1_PI3Kalpha, 4 ug/mL for Rat-1_PI3beta), 1% (v/v) Pen/Strep) to 90% confluency at 37° C./5% CO2/90% humidity in a humidified CO2 incubator and were split twice a week. […]", "data": [{"smiles": "CC[C@H]1[C@H](c2ccc(OC)cc2)OC(=O)N1c1cc(-c2cnc(N)nc2C(F)(F)F)nc(N2CCOCC2)n1", "note": "(relative stereo) [Example 2, (4S*,5S*)-3-(2′-amino-2-morpholino-4′-(trifluoromethyl)-[4,5′-bipyrimidin]-6-yl)-4-ethyl-5-(4-methoxyphenyl)oxazolidin-2-one]", "values": [{"measurement": "IC50", "value": 751, "unit": "nM"}]}, {"smiles": "COc1ccc([C@@H]2OC(=O)N(c3cc(-c4cnc(N)nc4C(F)(F)F)nc(N4CCOCC4)n3)[C@H]2CO)cc1", "note": "[Example 3, (4S,5S)-3-(2′-Amino-2-morpholino-4′-(trifluoromethyl)-[4,5′-bipyrimidin]-6-yl)-4-(hydroxymethyl)-5-(4-methoxyphenyl)oxazolidin-2-one]", "values": [{"measurement": "IC50", "value": 33, "unit": "nM"}]}, {"smiles": "CCC1C(c2cccnc2)OC(=O)N1c1cc(-c2cnc(N)nc2C(F)(F)F)nc(N2CCOCC2)n1", "note": "(centres unmarked) [Example 8]", "values": [{"measurement": "IC50", "value": 26, "unit": "nM"}]}, {"smiles": "Nc1ncc(-c2cc(N3C(=O)O[C@@H](c4ccccc4)[C@@H]3CO)nc(N3CCOCC3)n2)c(C(F)(F)F)n1", "note": "[Example 10]", "values": [{"measurement": "IC50", "value": 23, "unit": "nM"}]}, {"smiles": "C[C@H]1[C@@H](c2nccs2)OC(=O)N1c1cc(-c2cnc(N)nc2C(F)(F)F)nc(N2CCOCC2)n1", "note": "[Example 11]", "values": [{"measurement": "IC50", "value": 26, "unit": "nM"}]}]}
